From US10252997B2, “Monocyclic compound” (Takeda Pharmaceutical Company Limited, priority 2015, dated 2019)

How the values were obtained:
[1] = target: T1, Human ACC1 (Homo sapiens, UniProt Q13085); assay: Measurement of ACC1 inhibitory activity (Malonyl-CoA produced, RapidFire-mass spectrometry); type: biochemical; conditions: 10 μM of the test compound; read-out: ACC1 inhibitory rate (%) at 10 μM
T1 construct: His6 (from vector pFAST-BacHTc; purified on Ni-NTA) (N); made in house; host or cells: SF-9 insect cells, recombinant baculovirus BAC-ACC1
Procedure: (1) Cloning of Human ACC1 Gene and Preparation of Recombinant Baculovirus
Human ACC1 gene was cloned by PCR using a human liver cDNA library (Clontech) as a template and Primer 1 and Primer 2 shown below. Primer 1 and Primer 2 were prepared by adding SalI, NotI restriction enzyme recognition sequences based on the information of the base sequence of human ACC1 gene (Genbank Accession U19822).
PCR was performed using Pyrobest DNA polymerase (TAKARA BIO INC.). The obtained PCR product was cloned to pT7 Blue vector (Novagen) and after confirmation of the base sequence, digested with restriction enzymes SalI and […]. The obtained DNA fragment was inserted into pFAST-BacHTc (Invitrogen) digested with restriction enzymes SalI and […] to give expression plasmid ACC1/pFAST-BacHTc.
Using the expression plasmid ACC1/pFAST-BacHTc and BAC-TO-BAC Baculovirus Expression System (Invitrogen), virus stock BAC-ACC1 of recombinant Baculovirus was prepared.
(2) Preparation of ACC1 Protein
SF-9 cells (Invitrogen) were inoculated to a medium (10 L) for insect cells (Sf-900IISFM medium (Invitrogen) containing 5% fetal bovine serum (Trace), 50 mg/L Gentamicin (Wako Pure Chemical Industries, Ltd.) and 0.1% Pluronic F-68 (Invitrogen)) at 1.0×10^6 cells/mL, and cultured with shaking in Wave Bioreactor (GE Healthcare) at 27° C., 20 rpm, rocking angle 100, oxygen concentration 30%.
On day 2 of the culture, recombinant Baculovirus BAC-ACC1 was added, and the cells were cultured for 3 days. The culture medium was centrifuged at 4000×g for 10 min to give virus-infected cells. The cells were washed with phosphate buffered saline (Invitrogen) and centrifuged under the same conditions. The obtained cells were cryopreserved at −80° C.
The cryopreserved cells were thawed in ice, and suspended in 800 mL of 25 mM HEPES buffer (pH 7.5) containing 10% Glycerol, 0.3 M NaCl, 1 mM EDTA, 25 mM Sodium β-Glycerophosphate and 1 mM Sodium Orthovanadate, and supplemented with Complete Protease Inhibitor (Roche). The obtained suspension was homogenized two times in a polytron homogenizer (Kinematica) at 20,000 rpm for 20 sec. The obtained cell disruption solution was clarified by centrifugation at 186,000×g for 60 min, and the supernatant was passed through Ni-NTA Superflow Cartridges (5 mL) (QUIAGEN). Furthermore, it was washed with 25 mM HEPES buffer (pH 7.5) containing 20 mM Imidazole and 0.3 M NaCl, and eluted with 25 mM HEPES buffer (pH 7.5) containing 250 mM Imidazol and 0.3 M NaCl. The eluate was concentrated by Amicon Ultra-15 (Nihon Millipore K.K.) having a fraction molecular weight of 50K. The obtained concentrate was subjected to gel filtration with 50 mM HEPES buffer (pH 7.5) containing 10 mM MgCl2, 2 mM dithiothreitol, 10 mM tripotassium citrate and 0.3 M NaCl by using HiLoad 26/60 Superdex200 prep grade gel filtration column (GE Healthcare) to give ACC1. The obtained ACC1 was cryopreserved at −80° C.
(3) Measurement of ACC1 Inhibitory Activity
ACC1 obtained in the above-mentioned (2) was diluted with an enzyme reaction buffer (50 mM HEPES (pH 7.5), 10 mM MgCl2, 10 mM Tripottasium Citrate, 2 mM Dithiothreitol, 0.001% Fatty acid free BSA) to a concentration of 0.2 μg/ml, and the mixture was added to each well of a 384 well assay plate by 10 μl. A test compound dissolved in dimethyl sulfoxide (DMSO) was diluted with an enzyme reaction buffer, and the resulting solution (5 μl) was added to each well. The mixture was incubated at room temperature for 60 min. Then, a substrate solution (50 mM KHCO3, 200 μM ATP, 200 μM Acetyl-CoA, 5 μl) was added to each well, and the mixture was reacted at room temperature for 30 min. The reaction was quenched by adding a reaction quenching liquid (1.3% formic acid, 0.2 μM Malonyl-^13C3-CoA) by 60 μL each to the obtained reaction mixtures (test compound addition group).
In addition, a reaction was performed in the same manner as above and without adding the test compound (test compound non-addition group). […]

[2] = tested on: HCT116 cells; assay: Growth inhibitory activity on HCT116 cell (CellTiter-Glo); type: cell-based; conditions: Homo sapiens, HCT-116, 72 h; test compound 1 μM, 3 days; read-out: HCT116 cell proliferation inhibitory rate (%) at 1 μM
Procedure: The growth inhibitory activity of the compound on HCT116 cell was evaluated by the following method.
HCT116 cells were seeded in a 384 well blackplate at 900 cells/[…]/well, and maintained in an assay medium (RPMI medium (Wako) containing 2% fetal bovine serum, 50 Unit/mL penicillin and […] streptomycin (Invitrogen)). The next day, a test compound dissolved in dimethyl sulfoxide (DMSO) was diluted with the assay medium, and the obtained compound solution was added by […] to each well of a plate containing HCT116 cells, and incubated at 37° C., 5% CO2 (test compound addition group).
A similar reaction was performed without adding a test compound (test compound non-addition group).
Furthermore, a similar reaction was performed under the conditions without adding HCT116 cell and a test compound (control group).
After 3 days, […] of a CellTiter-Glo reagent (Promega KK) was added to the well, and the mixture was stirred for 10 min. Thereafter, the luminescence value of each well was measured by the EnVision™ multilabel counter (Perkin Elmer Inc.).
The HCT116 cell proliferation inhibitory rate (%) of the test compound was determined by the following calculation formula. (1−(luminescence of test compound addition group−luminescence of control group)÷(luminescence of test compound non-addition group−luminescence of control group))×100
The HCT116 cell proliferation inhibitory rates (%) of the test compound (1 μM) are shown below.

Row | Structure (SMILES) | inhibition at 10 µM [1] [%] | inhibition at 1 µM [2] [%]
1 | CC(=O)NC(C)c1ccc(OCc2ccc(Oc3cccc(OCC4CC4)c3)cc2F)cc1 (stereo not shown) [Example 19, N-(1-(4-((4-(3-(cyclopropylmethoxy)phenoxy)-2-fluorobenzyl)oxy)phenyl)ethyl)acetamide] | 83 | 15
2 | CC(=O)N[C@@H](C)COc1cnc(-c2ccc(Oc3cccc(OCC4CC4)c3)cc2)o1 [Example 30, N-((2S)-1-((2-(4-(3-(cyclopropylmethoxy)phenoxy)phenyl)-1,3-oxazol-5-yl)oxy)propan-2-yl)acetamide] | 99 | 28
3 | CC(=O)NC(C)CCc1cnc(-c2ccc(Oc3cccc(OCC4CC4)c3)cc2)o1 (stereo not shown) [Example 32, N-(4-(2-(4-(3-(cyclopropylmethoxy)phenoxy)phenyl)-1,3-oxazol-5-yl)butan-2-yl)acetamide] | 97 | 30
4 | CC(=O)NC(C)c1cnc(OCc2ccc(Oc3cccc(OCC4CC4)c3)cc2F)cn1 (stereo not shown) [Example 35, N-(1-(5-((4-(3-(cyclopropylmethoxy)phenoxy)-2-fluorobenzyl)oxy)pyrazin-2-yl)ethyl)acetamide] | 78 | –
5 | CC(=O)NC(C)c1ccc(OCc2c(F)cc(Oc3cccc(OCC4CC4)c3)cc2F)cc1 (stereo not shown) [Example 39, N-(1-(4-((4-(3-(cyclopropylmethoxy)phenoxy)-2,6-difluorobenzyl)oxy)phenyl)ethyl)acetamide] | 82 | 26
6 | CC(=O)NC(C)c1ccc(OCc2ccc(Oc3cccc(OCC4CC4)c3)cc2F)nc1 (stereo not shown) [Example 42, N-(1-(6-((4-(3-(cyclopropylmethoxy)phenoxy)-2-fluorobenzyl)oxy)pyridin-3-yl)ethyl)acetamide] | 85 | 10
7 | CC(=O)NC(C)c1cnc(OCc2c(F)cc(Oc3cccc(OCC4CC4)c3)cc2F)cn1 (stereo not shown) [Example 43, N-(1-(5-((4-(3-(cyclopropylmethoxy)phenoxy)-2,6-difluorobenzyl)oxy)pyrazin-2-yl)ethyl)acetamide] | 94 | –
8 | CC(=O)N[C@@H](C)COc1cnc(-c2ccc(Oc3cccc(OCC4CC4)c3)nc2)o1 [Example 99, N-((2S)-1-((2-(6-(3-(cyclopropylmethoxy)phenoxy)pyridin-3-yl)-1,3-oxazol-5-yl)oxy)propan-2-yl)acetamide] | 100 | –
9 | C[C@@H](COc1cnc(-c2ccc(Oc3cccc(OCC4CC4)c3)nc2)o1)NC(N)=O [Example 101, 1-((2S)-1-((2-(6-(3-(cyclopropylmethoxy)phenoxy)pyridin-3-yl)-1,3-oxazol-5-yl)oxy)propan-2-yl)urea] | 98 | –
10 | CC(=O)N[C@@H](C)COc1cnc(-c2ccc(Oc3cccc(OCC4CC4)c3)cn2)o1 [Example 102, N-((2S)-1-((2-(5-(3-(cyclopropylmethoxy)phenoxy)pyridin-2-yl)-1,3-oxazol-5-yl)oxy)propan-2-yl)acetamide] | 100 | –
11 | CC(=O)NC(C)CC(=O)c1cnn(-c2ccc(Oc3cccc(OCC4CC4)c3)nc2)c1 (stereo not shown) [Example 103, N-(4-(1-(6-(3-(cyclopropylmethoxy)phenoxy)pyridin-3-yl)-1H-pyrazol-4-yl)-4-oxobutan-2-yl)acetamide] | 98 | –
12 | C[C@@H](COc1cnc(-c2ccc(Oc3cccc(OCC4CC4)c3)cn2)o1)NC(N)=O [Example 104, 1-((2S)-1-((2-(5-(3-(cyclopropylmethoxy)phenoxy)pyridin-2-yl)-1,3-oxazol-5-yl)oxy)propan-2-yl)urea] | 95 | –
13 | CC(=O)NC(C)CC(=O)c1cnc(-c2ccc(Oc3cccc(OCC4CC4)c3)nc2)o1 (stereo not shown) [Example 105, N-(4-(2-(6-(3-(cyclopropylmethoxy)phenoxy)pyridin-3-yl)-1,3-oxazol-5-yl)-4-oxobutan-2-yl)acetamide] | 100 | –
14 | CC(=O)N[C@@H](C)COc1cnc(-c2cnc(Oc3cccc(OCC4CC4)c3)cc2C)o1 [Example 106, N-((2S)-1-((2-(6-(3-(cyclopropylmethoxy)phenoxy)-4-methylpyridin-3-yl)-1,3-oxazol-5-yl)oxy)propan-2-yl)acetamide] | 98 | –
